In PMC6986443, “T‐495, a novel low cooperative M1 receptor positive allosteric modulator, improves memory deficits associated with cholinergic dysfunction and is characterized by low gastrointestinal side effect risk” (Pharmacology Research & Perspectives, 2020):

Experiments:
[1] = Concentrations in plasma and brain of wild-type and M1R KO mice; type: in vivo; conditions: mouse, po; for concentration at 2 h: mean ± SD; for Kp at 2 h: brain/plasma
Description: (§1) Eight‐week‐old Long‐Evans rats, 8‐ to 9‐week‐old C57BL/6J mice, and 22‐ or 29‐week‐old M1R KO mice and their WT littermates were used in this study. On the day of the experiment, animals were placed in individual cages and acclimated for more than 1 hour. A test compound or vehicle was administered 2 hours before the animals were sacrificed. […] LiCl (10 mmol/kg, s.c.) was injected 1 hour before sacrifice. In the repeated administration study, a test compound was administered to mice once daily for 13 days; on day 14, animals were treated with a test compound and LiCl (10 mmol/kg, s.c.) and then sacrificed. Animals were killed by decapitation, and blood was collected into tubes containing ethylenediaminetetraacetic acid for pharmacokinetic analysis; brains were quickly dissected, frozen on dry ice, and stored at −80°C until analysis. Brain tissues were homogenized in 19 (for rat tissues) or 39 (for mouse tissue) volumes of homogenization buffer (10 mmol/L HEPES pH 7.4, 50 mmol/L LiCl, 150 mmol/L NaCl, and 1% Triton X‐100), and the homogenate was incubated on a rotator for 1 hour, followed by centrifugation. The supernatant was diluted with 39 (for rat tissues) or 19 (for mouse tissues) volumes of dilution buffer (10 mmol/L HEPES pH 7.4, 50 mmol/L LiCl, and 150 mmol/L NaCl). IP1 and protein concentrations in the diluted supernatant were measured using IP‐One HTRF assay kit (Cisbio Bioassays) and BCA Protein Assay Kit (Thermo Fisher Scientific Inc), respectively, according to the manufacturers’ instructions. IP1 production was expressed as the ratio of IP1 to protein concentrations.

[2] = test system: IP1 production in the mouse hippocampus; assay: In vivo IP1 assay after repeated administration for 13 days; conditions: for Basal IP1 level in the mouse hippocampus: after repeated treatment 10 mg/kg p.o. for 13 days, mean ± SEM, n = 10; for magnitude of IP1 increase in mouse hippocampus after 13 days of pretreatment: pretreatment 10 mg/kg p.o. once daily, vs single administration
Description: as §1

human M1R = target: T1, human M1R (Homo sapiens, UniProt P11229); assay: [3H]‐pirenzepine binding assay (cooperativity, allosteric ternary complex model); set-up: expressed in transfected cells; conditions: between PAM and ACh; for Cooperativity Log α: 95% confidence intervals in parentheses
T1 sequence (P11229 1-460): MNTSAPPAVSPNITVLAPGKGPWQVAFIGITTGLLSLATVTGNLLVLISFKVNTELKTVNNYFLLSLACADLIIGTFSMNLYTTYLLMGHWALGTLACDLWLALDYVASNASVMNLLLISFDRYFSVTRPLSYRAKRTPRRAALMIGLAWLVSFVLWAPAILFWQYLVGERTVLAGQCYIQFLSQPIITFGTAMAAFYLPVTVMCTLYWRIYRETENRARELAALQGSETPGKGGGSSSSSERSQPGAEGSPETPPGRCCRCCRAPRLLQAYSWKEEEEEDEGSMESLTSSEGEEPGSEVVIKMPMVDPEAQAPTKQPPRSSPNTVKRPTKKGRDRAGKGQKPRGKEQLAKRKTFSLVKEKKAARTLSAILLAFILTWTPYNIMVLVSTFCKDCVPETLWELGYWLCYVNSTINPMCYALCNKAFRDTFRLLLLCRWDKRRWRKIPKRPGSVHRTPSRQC
Description: Cell membranes from FreeStyle 293 cells transiently expressing human M1R were incubated with T‐495 or MK‐7622 (0.1‐30 μmol/L), ACh (0.003‐3000 μmol/L), and 4 nmol/L [^3H]‐pirenzepine (PerkinElmer) in assay buffer (20 mmol/L HEPES, 100 mmol/L NaCl, 10 mmol/L MgCl2, and 0.1% fatty acid free BSA) for 2 hours at room temperature. The binding was terminated by filtration through GF/C filter plates (PerkinElmer) using a cell harvester (PerkinElmer) and five washed with 300 μL of 50 mmol/L Tris‐HCl. The GF/C plates were dried at 42°C; then, 25 μL of microscint 0 (PerkinElmer) was added. Radioactivity was counted using Topcount (PerkinElmer). Nonspecific binding was defined in the presence of 10 μmol/L atropine. To calculate the cooperativity of a PAM, the [^3H]‐pirenzepine binding assay data were fitted to the allosteric ternary complex model,35 using GraphPad Prism 5 software: Y=C/KC+αBC[B][C]/KBKC/1+A/KA+B/KB+C/KC+αAB[A][B]/KAKB+αBC[B][C]/KBKC
where Y is the fractional specific [^3H]‐pirenzepine binding; [A], [B], and [C] are the concentrations of ACh, a PAM, and [^3H]‐pirenzepine, respectively; K A, K B, and K C are the equilibrium dissociation constants of ACh, a PAM, and [^3H]‐pirenzepine, respectively; and αAB and αBC are the cooperativities between a PAM and ACh or [^3H]‐pirenzepine, respectively.

[3] = Concentrations in mouse plasma and brain after single and repeated treatment; type: in vivo; conditions: C57BL/6J, oral, mean ± SD
Description: as §1

[4] = test system: IP1 production in the mouse hippocampus; assay: In vivo IP1 assay, mouse hippocampus; conditions: p.o.; 3, 10, 30 mg/kg tested
Description: as §1, with “Brain tissues were homogenized in 19 (for rat tissues) or 39 (for mouse tissue) volumes of homogenization buffer (10 mmol/L HEPES pH 7.4, 50 mmol/L LiCl, 150 mmol/L NaCl, and 1% Triton X‐100), and the homogenate was incubated on a rotator for 1 hour, followed by centrifugation. The supernatant was diluted with 39 (for rat tissues) or 19 (for mouse tissues) volumes of dilution buffer (10 mmol/L HEPES pH 7.4, 50 mmol/L LiCl, and 150 mmol/L NaCl).” left out

[5] = test system: IP1 production in the hippocampus, prefrontal cortex, striatum, and brainstem; assay: In vivo IP1 assay, wild‐type and M1R KO mice; set-up: species or system mouse
Description: as §1

[6] = test system: rats pretreated with scopolamine; assay: Novel object recognition (NOR) test, scopolamine‐induced memory impairment; type: in vivo, rat; conditions: for scopolamine‐induced NDI reduction, retention trial: scopolamine 0.1 mg/kg s.c.
Description: On Day 1, 7‐week‐old Long‐Evans rats were individually placed into the test box fabricated from polyvinyl chloride (40‐cm square with 50‐cm high walls) without any objects for 10 minutes. […] In the acquisition trial, each rat was placed in the test box containing two identical objects and allowed to explore them for 3 minutes. After an intertrial interval of 4 hours, each rat was again placed in the same test box containing one familiar and one novel objects and allowed to explore both for 3 minutes (retention trial). The behavior of each animal during the acquisition and retention trials was recorded on video, and the time spent exploring each object (licking, sniffing, or touching the object with the forepaws) was scored manually. Results were presented as novelty discrimination index (NDI) calculated as follows: the exploration time for the novel object/the exploration time for both objects × 100.

[7] = brain (hippocampus), 10 mg/kg, mouse hippocampus, pretreated with the compound 10 mg/kg p.o. for 13 days, 10 mg/kg p.o., read-out: Brain concentration
[8] = brain (hippocampus), 10 mg/kg, mouse hippocampus, vehicle-pretreated, 10 mg/kg p.o., read-out: Brain concentration
[9] = brain (hippocampus), 30 mg/kg, mouse hippocampus, pretreated with the compound 10 mg/kg p.o. for 13 days, 30 mg/kg p.o., read-out: Brain concentration
[10] = brain (hippocampus), 30 mg/kg, mouse hippocampus, vehicle-pretreated, 30 mg/kg p.o., read-out: Brain concentration
[11] = plasma, 10 mg/kg, pretreated with the compound 10 mg/kg p.o. for 13 days, 10 mg/kg p.o., read-out: Plasma concentration
[12] = plasma, 10 mg/kg, vehicle-pretreated, 10 mg/kg p.o., n = 10, read-out: Plasma concentration
[13] = plasma, 30 mg/kg, pretreated with the compound 10 mg/kg p.o. for 13 days, 30 mg/kg p.o., read-out: Plasma concentration
[14] = plasma, 30 mg/kg, vehicle-pretreated, 30 mg/kg p.o., n = 10, read-out: Plasma concentration

| Compound | Basal IP1 level in the mouse hippocampus [2] [nmol/mg protein] | magnitude of IP1 increase in mouse hippocampus after 13 days of pretreatment [2] | Cooperativity α (human M1R) | Cooperativity Log α (human M1R) | concentration at 2 h [3, 7] [ng/g] | concentration at 2 h [3, 8] [ng/g] | concentration at 2 h [3, 9] [ng/g] | concentration at 2 h [3, 10] [ng/g] | concentration at 2 h [3, 11] [ng/mL] | concentration at 2 h [3, 12] [ng/mL] | concentration at 2 h [3, 13] [ng/mL] | concentration at 2 h [3, 14] [ng/mL] | minimum effective dose for increase of IP1 production in the mouse hippocampus [4] [mg/kg] | scopolamine‐induced NDI reduction, retention trial ([6]; 1 mg/kg p.o.) | scopolamine‐induced NDI reduction, retention trial ([6]; 3 mg/kg p.o.) | other results |
| --- | --- | --- | --- | --- | --- | --- | --- | --- | --- | --- | --- | --- | --- | --- | --- | --- |
| Cc1ccc(Cc2cc3c(=O)n([C@H]4CCCC[C@@H]4O)cnc3c3ccccc23)cn1 [MK‐7622, 3‐((1S,2S)‐2‐hydroxycyclohexyl)‐6‐((6‐methylpyridin‐3‐yl)methyl)benzo[h]quinazolin‐4(3H)‐one, reference compound] | 0.99± 0.05 | comparable to those after single administration | 511 | 2.71 (2.48‐2.94) | 126 ± 28.7 | 137 ± 23.1 | 813 ± 262 | 787 ± 284 | 490 ± 86.4 | 624 ± 61.4 | 2430 ± 550 | 2340 ± 518 | 10 | subeffective | significantly reversed | concentration at 2 h ([1]; brain (hippocampus), 20 mg/kg, M1R KO mice hippocampus, 20 mg/kg p.o., read-out: Brain concentration): 456 ± 85.8 ng/g; concentration at 2 h ([1]; brain (hippocampus), 20 mg/kg, wild-type mice hippocampus, 20 mg/kg p.o., read-out: Brain concentration): 582 ± 133 ng/g; Kp at 2 h ([1]; 20 mg/kg, M1R KO mice, 20 mg/kg p.o.): 0.21; Kp at 2 h ([1]; 20 mg/kg, wild-type mice, 20 mg/kg p.o.): 0.26; concentration at 2 h ([1]; plasma, 20 mg/kg, M1R KO mice, 20 mg/kg p.o., n = 10, read-out: Plasma concentration): 2190 ± 312 ng/mL; concentration at 2 h ([1]; plasma, 20 mg/kg, wild-type mice, 20 mg/kg p.o., n = 10, read-out: Plasma concentration): 2240 ± 376 ng/mL; IP1 production in the brainstem ([5]; M1R KO mice (and wild‐type), 20 mg/kg p.o.): slight reduction; IP1 production in hippocampus, prefrontal cortex, and striatum ([5]; M1R KO mice, 20 mg/kg p.o.): did not cause a significant increase; IP1 production in the brainstem ([5]; wild‐type mice, 20 mg/kg p.o.): slightly reduced; IP1 production in the forebrain ([5]; wild‐type mice, 20 mg/kg p.o.): increased; scopolamine‐induced NDI reduction, retention trial ([6]; 10 mg/kg p.o.): significantly reversed; scopolamine‐induced NDI reduction, combination with donepezil ([6]; MK‐7622 1 mg/kg + donepezil 0.1 mg/kg p.o.): could not reverse |
| Cc1c(Cc2ccc(Cl)nc2)cc2c(c1Cl)OCN([C@H]1CCC[C@@H]1O)C2=O [T‐495, 8‐chloro‐6‐((6‐chloropyridin‐3‐yl)methyl)‐3‐((1S,2S)‐2‐hydroxycyclopentyl)‐7‐methyl‐2,3‐dihydro‐4H‐1,3‐benzoxazin‐4‐one] | 1.09± 0.03 | comparable to those after single administration | 170 | 2.23 (2.07‐2.40) | 879 ± 159 | 956 ± 122 | 4090 ± 599 | 3650 ± 744 | 1300 ± 338 | 1150 ± 215 | 5420 | 4890 ± 923 | 10 | significantly reversed | significantly reversed | concentration at 2 h ([1]; brain (hippocampus), 10 mg/kg, M1R KO mice hippocampus, 10 mg/kg p.o., read-out: Brain concentration): 856 ± 78.4 ng/g; concentration at 2 h ([1]; brain (hippocampus), 10 mg/kg, wild-type mice hippocampus, 10 mg/kg p.o., read-out: Brain concentration): 1030 ± 145 ng/g; Kp at 2 h ([1]; 10 mg/kg, M1R KO mice, 10 mg/kg p.o.): 0.55; Kp at 2 h ([1]; 10 mg/kg, wild-type mice, 10 mg/kg p.o.): 0.62 ± 0.1; concentration at 2 h ([1]; plasma, 10 mg/kg, M1R KO mice, 10 mg/kg p.o., n = 10, read-out: Plasma concentration): 1590 ± 266 ng/mL; concentration at 2 h ([1]; plasma, 10 mg/kg, wild-type mice, 10 mg/kg p.o., n = 10, read-out: Plasma concentration): 1690 ± 280 ng/mL; IP1 production in hippocampus, prefrontal cortex, and striatum ([5]; M1R KO mice, 10 mg/kg p.o.): did not cause a significant increase; IP1 production in hippocampus, prefrontal cortex, and striatum ([5]; wild‐type mice, 10 mg/kg p.o.): significantly increased; scopolamine‐induced NDI reduction, retention trial ([6]; 0.3 mg/kg p.o.): subeffective; scopolamine‐induced NDI reduction, combination with donepezil ([6]; T‐495 0.3 mg/kg + donepezil 0.1 mg/kg p.o.): significantly improved |
